Laboratory results: US20230035690A1, “MACHINE LEARNING TOOLS AND A PROCESS TO DISCOVER NEW NATURAL PRODUCTS BY LINKING GENOMES AND M[…] FUNGI” (Northwestern University, priority 2019, published 2023)

System: A. fumigatus IDO mutants
Assay: growth inhibition test against A. fumigatus IDO mutants
Type: cell-based
Details: tested against A. fumigatus IDO mutants
Text: In addition to re-purposing duplicated primary metabolism genes to have a biosynthetic role, fungi also utilize duplicated genes from primary metabolism as a form of self-resistance (Refs. A34, A35; incorporated by reference in their entireties). This Type II repurposing represents a particularly attractive avenue for drug discovery, as the duplicated gene will often provide insight into the mechanism of action of the encoded secondary metabolite. Several examples of such Type II repurposing have been discovered by targeting clusters with duplicate resistance targets. The proteasome inhibitor fellutamide B, for example, was discovered due to the presence of a duplicated proteasome subunit within its BGC (36). Similarly, the BGC encoding the methionine aminopeptidase inhibitor fumagillin contains both type I and type II methionine aminopeptidase genes in the gene cluster (FIG. 10) (Ref. A37; incorporated by reference in its entirety). While it is likely that many of the IDOs contained within the BGCs depicted in FIGS. 8 and 9 represent Type I biosynthetic enzymes that provide kynurenine for secondary metabolite synthesis, it is also possible that they represent Type II duplicated gene targets that serve to protect the producing organism against the biosynthetic product. […]

## Nc1ccccc1C(=O)NC1CC(=O)c2ccccc2NC1=O (stereo not shown) [terreazepine, 2-amino-N-(2,3,4,5-tetrahydro-2,5-dioxo-1H-1-benzazepin-3-yl)benzamide]
  growth inhibitory activity: no growth inhibitory activity was observed
